Where two headings read alike, the source gives them in different places.
Legend:
[1] = molecular target: T1, JAK2 (Homo sapiens, UniProt O60674); assay: Kinobeads assay, JAK2 (competition binding in mixed Molt4/Ramos cell lysate, dot blot detection); conditions: read-out: JAK2 Band (Kinobeads assay potency, IC50)
T1 construct: endogenous in cells; host or cells: Molt4 (ATCC CRL-1582) and Ramos (ATCC CRL-1596), mixed lysate 1:2
Method in brief: (§1)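 JAK2 and TYK2 retained on Kinobeads (immobilized aminopyrido-pyrimidine ligand) from 1:2 Molt4:Ramos lysate (10 mg/mL) were quantified by antibody dot blot (Odyssey infrared) after 3 h cold incubation with compound. Nine-step 1:3 dilution series; IC50 calculated from curves.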

[2] = molecular target: T2, TYK2 (Homo sapiens, UniProt P29597); assay: Kinobeads assay, TYK2 (competition binding in mixed Molt4/Ramos cell lysate, dot blot detection)
T2 construct: endogenous in cells; host or cells: Molt4 (ATCC CRL-1582) and Ramos (ATCC CRL-1596), mixed lysate 1:2
T2 sequence (P29597 whole entry): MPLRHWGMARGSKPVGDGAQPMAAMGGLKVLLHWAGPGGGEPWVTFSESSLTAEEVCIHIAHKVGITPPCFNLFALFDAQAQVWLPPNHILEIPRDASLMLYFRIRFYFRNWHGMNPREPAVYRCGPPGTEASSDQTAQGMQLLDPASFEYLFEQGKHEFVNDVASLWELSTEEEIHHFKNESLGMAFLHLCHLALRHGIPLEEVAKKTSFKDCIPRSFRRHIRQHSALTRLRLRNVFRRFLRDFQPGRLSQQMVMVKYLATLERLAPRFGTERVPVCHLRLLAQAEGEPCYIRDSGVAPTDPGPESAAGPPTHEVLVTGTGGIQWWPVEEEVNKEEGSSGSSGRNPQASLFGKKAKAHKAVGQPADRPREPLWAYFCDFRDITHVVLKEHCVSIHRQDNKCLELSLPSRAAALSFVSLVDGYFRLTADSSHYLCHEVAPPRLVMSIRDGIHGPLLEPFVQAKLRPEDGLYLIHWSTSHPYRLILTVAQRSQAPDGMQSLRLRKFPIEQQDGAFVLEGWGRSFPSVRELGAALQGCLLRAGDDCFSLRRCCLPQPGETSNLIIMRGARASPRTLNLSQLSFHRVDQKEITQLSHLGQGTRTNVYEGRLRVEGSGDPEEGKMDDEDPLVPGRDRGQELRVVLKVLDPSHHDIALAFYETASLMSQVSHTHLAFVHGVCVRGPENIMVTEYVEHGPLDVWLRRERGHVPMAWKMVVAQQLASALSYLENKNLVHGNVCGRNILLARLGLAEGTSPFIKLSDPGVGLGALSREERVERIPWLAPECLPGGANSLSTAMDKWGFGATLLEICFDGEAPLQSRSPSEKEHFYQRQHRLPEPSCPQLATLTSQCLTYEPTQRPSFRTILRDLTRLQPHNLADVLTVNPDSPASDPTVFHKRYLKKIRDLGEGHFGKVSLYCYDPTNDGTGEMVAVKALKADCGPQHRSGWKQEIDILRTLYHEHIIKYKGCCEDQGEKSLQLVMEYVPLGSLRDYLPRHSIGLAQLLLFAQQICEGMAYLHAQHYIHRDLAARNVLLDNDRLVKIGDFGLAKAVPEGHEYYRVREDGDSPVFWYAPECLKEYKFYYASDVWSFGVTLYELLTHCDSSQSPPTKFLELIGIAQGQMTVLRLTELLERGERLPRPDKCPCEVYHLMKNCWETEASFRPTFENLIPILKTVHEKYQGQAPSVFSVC
Method in brief: as §1

[3] = Kinobeads assay, Molt4/Ramos lysate, read-out: TYK2 Band (Kinobeads assay potency, IC50)

T1 sequence (O60674 whole entry): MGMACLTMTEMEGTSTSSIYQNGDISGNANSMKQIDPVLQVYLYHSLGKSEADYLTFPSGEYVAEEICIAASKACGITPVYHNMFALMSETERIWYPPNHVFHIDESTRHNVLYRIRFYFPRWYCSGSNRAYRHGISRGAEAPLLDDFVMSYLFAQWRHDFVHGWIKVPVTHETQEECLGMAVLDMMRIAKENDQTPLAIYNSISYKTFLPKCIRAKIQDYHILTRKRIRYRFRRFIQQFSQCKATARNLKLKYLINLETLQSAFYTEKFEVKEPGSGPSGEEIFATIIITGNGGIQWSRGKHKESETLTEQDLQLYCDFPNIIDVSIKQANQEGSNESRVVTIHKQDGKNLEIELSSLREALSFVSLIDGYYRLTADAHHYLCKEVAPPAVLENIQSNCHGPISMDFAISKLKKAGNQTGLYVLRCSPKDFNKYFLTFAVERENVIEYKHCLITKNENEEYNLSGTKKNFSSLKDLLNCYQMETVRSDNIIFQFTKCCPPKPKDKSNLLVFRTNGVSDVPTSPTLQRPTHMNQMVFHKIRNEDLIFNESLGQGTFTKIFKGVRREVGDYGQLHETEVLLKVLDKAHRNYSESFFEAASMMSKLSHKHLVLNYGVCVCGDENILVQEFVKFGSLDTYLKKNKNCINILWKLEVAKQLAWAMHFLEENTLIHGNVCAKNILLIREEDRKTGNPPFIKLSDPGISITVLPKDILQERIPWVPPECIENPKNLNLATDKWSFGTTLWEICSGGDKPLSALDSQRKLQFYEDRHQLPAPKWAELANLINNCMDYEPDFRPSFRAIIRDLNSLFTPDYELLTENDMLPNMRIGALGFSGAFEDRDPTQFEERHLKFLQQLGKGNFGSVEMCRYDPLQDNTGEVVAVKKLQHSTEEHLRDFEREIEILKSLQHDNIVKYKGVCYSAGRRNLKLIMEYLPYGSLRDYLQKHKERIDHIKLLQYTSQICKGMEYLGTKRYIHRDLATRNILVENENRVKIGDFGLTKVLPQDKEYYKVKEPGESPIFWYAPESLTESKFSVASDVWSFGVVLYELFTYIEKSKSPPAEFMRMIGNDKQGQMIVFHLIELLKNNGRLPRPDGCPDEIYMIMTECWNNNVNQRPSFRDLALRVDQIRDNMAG

IC50 [1] | IC50 [2, 3] | IC50 ([2]; read-out: TYK2 IC50) | Compound
100 to 1000 nM | ≤ 10 nM | – | Cc1cnc(Nc2cnn(CCO)c2)nc1NCc1c(F)cccc1F [Example I-298]
> 10000 nM | 10 to 100 nM | < 100 nM | CC(C)NC(=O)Cn1cc(Nc2nccc(NCc3c(F)cccc3F)n2)cn1 [Example I-62]
1000 to 10000 nM | 10 to 100 nM | – | CC(C)(CO)NC(=O)Cn1cc(Nc2nccc(NCc3c(F)cc(F)cc3F)n2)cn1 [Example I-460]
1000 to 10000 nM | 10 to 100 nM | – | CN(C)C(=O)Cn1cc(Nc2ncc(F)c(NCc3c(F)cc(F)cc3F)n2)cn1 [Example I-18]
100 to 1000 nM | ≤ 10 nM | – | COc1ccc(Cl)c(CNc2ccnc(Nc3cnn(CC(=O)N[C@@H](C)CO)c3)n2)c1F [Example I-122]
1000 to 10000 nM | 1000 to 10000 nM | – | Clc1cnc(Nc2cnn(Cc3ncco3)c2)nc1NCc1ccccc1 [Example I-249]
1000 to 10000 nM | 10 to 100 nM | – | O=C(Cn1cc(Nc2ncc(Cl)c(NCc3ccccc3)n2)cn1)N1CCOCC1 [Example I-160]
1000 to 10000 nM | 100 to 1000 nM | – | OCCn1cc(Nc2ncc(Cl)c(NCc3cc(F)cc(C(F)(F)F)c3)n2)cn1 [Example I-181]
1000 to 10000 nM | 10 to 100 nM | – | NC(=O)Cn1cc(Nc2nccc(NCc3c(F)cc(F)cc3F)n2)cn1 [Example I-311]
100 to 1000 nM | 100 to 1000 nM | – | CN(C)CCNC(=O)Cn1cc(Nc2ncc(Cl)c(NCc3ccccc3)n2)cn1 [Example I-221]
1000 to 10000 nM | 10 to 100 nM | – | CN(C)C(=O)Cn1cc(Nc2ncc(F)c(NCc3cccc(OC(F)F)c3)n2)cn1 [Example I-14]
1000 to 10000 nM | 10 to 100 nM | – | CCNC(=O)Cn1cc(Nc2nccc(NCc3c(F)cc(F)cc3F)n2)cn1 [Example I-6, N-ethyl-2-(4-((4-((2,4,6-trifluorobenzyl)amino)pyrimidin-2-yl)amino)-1H-pyrazol-1-yl)acetamide]
1000 to 10000 nM | 10 to 100 nM | – | O=C(Cn1cc(Nc2nccc(NCc3c(F)cc(F)cc3F)n2)cn1)N[C@@H]1CCOC1 [Example I-137]
100 to 1000 nM | 10 to 100 nM | – | CS(=O)(=O)c1ccc(F)c(CNc2nc(Nc3cnn(CC(N)=O)c3)ncc2Cl)c1 [Example I-100]
> 10000 nM | 10 to 100 nM | – | O=C(Cn1cc(Nc2nccc(NCc3c(F)cc(F)cc3F)n2)cn1)NC1CC1(F)F (centres unmarked) [Example I-91]
> 10000 nM | 10 to 100 nM | – | O=C(Cn1cc(Nc2ncc(F)c(NCc3c(F)cc(F)cc3F)n2)cn1)NC1CCC1 [Example I-308]
1000 to 10000 nM | ≤ 10 nM | – | O=C(Cn1cc(Nc2nccc(NCc3c(F)cccc3F)n2)cn1)N1CCOCC1 [Example I-28]
100 to 1000 nM | 10 to 100 nM | – | COc1ccc(F)c(CNc2nc(Nc3cnn(CC(=O)N(C)C)c3)ncc2Cl)c1F [Example I-376]
1000 to 10000 nM | 10 to 100 nM | – | CC(C)NC(=O)Cn1cc(Nc2nccc(NCc3c(Cl)ccc(F)c3F)n2)cn1 [Example I-93]
100 to 1000 nM | 10 to 100 nM | – | CN(C)C(=O)Cn1cc(Nc2ncc(Cl)c(NCc3c(Cl)cccc3Cl)n2)cn1 [Example I-326]
100 to 1000 nM | 10 to 100 nM | – | CC(C)NC(=O)Cn1cc(Nc2ncc(F)c(NCc3c(Cl)ccc(Cl)c3F)n2)cn1 [Example I-82]
1000 to 10000 nM | ≤ 10 nM | – | COc1ccc(F)c(CNc2nc(Nc3cnn(CC(=O)N4CCOCC4)c3)ncc2F)c1F [Example I-24]

IC50 [1] | IC50 [2, 3] | IC50 ([2]; read-out: TYK2 IC50) | Compound
100 to 1000 nM | 10 to 100 nM | – | OCCn1cc(Nc2ncc(Cl)c(NCc3cc(OC(F)F)ccc3F)n2)cn1 [Example I-413]
100 to 1000 nM | 10 to 100 nM | – | COc1ccc(F)c(CNc2nc(Nc3cnn(CC(N)=O)c3)ncc2Cl)c1F [Example I-375]
1000 to 10000 nM | ≤ 10 nM | – | O=C(Cn1cc(Nc2nccc(NCc3c(F)ccc(F)c3F)n2)cn1)NC1CC1 [Example I-144]
1000 to 10000 nM | 10 to 100 nM | – | OCCn1cc(Nc2ncc(F)c(NCc3c(F)cc(F)cc3F)n2)cn1 [Example I-17]
100 to 1000 nM | 10 to 100 nM | – | CCOc1ccc(F)c(CNc2nc(Nc3cnn(CCO)c3)ncc2Cl)c1F [Example I-358]
> 10000 nM | 100 to 1000 nM | – | COc1ccc(F)c(CNc2nc(Nc3cnn(CCOC(C)C)c3)ncc2F)c1F [Example I-394]
1000 to 10000 nM | 100 to 1000 nM | – | NC(=O)Cn1cc(Nc2ncc(Cl)c(NCc3ccccc3CO)n2)cn1 [Example I-288]
100 to 1000 nM | 100 to 1000 nM | – | CNC(=O)Cn1cc(Nc2ncc(Cl)c(NCc3cccc(F)c3F)n2)cn1 [Example I-208]
> 10000 nM | 10 to 100 nM | – | CC(C)NC(=O)Cn1cc(Nc2ncc(F)c(NCc3cccc(OC(F)F)c3)n2)cn1 [Example I-45]
1000 to 10000 nM | 10 to 100 nM | – | O=C(Cn1cc(Nc2nccc(NCc3c(F)cc(F)cc3F)n2)cn1)N1CCOCC1 [Example I-27]
100 to 1000 nM | 100 to 1000 nM | – | CN(C)C(=O)Cn1cc(Nc2ncc(Cl)c(NCc3cc(Br)cc(F)c3F)n2)cn1 [Example I-263]
1000 to 10000 nM | ≤ 10 nM | – | C[C@@H](CO)NC(=O)Cn1cc(Nc2ncc(F)c(NCc3c(F)cc(F)cc3F)n2)cn1 [Example I-42]
1000 to 10000 nM | 10 to 100 nM | – | CC(C)NC(=O)Cn1cc(Nc2nccc(NCc3c(F)cc(F)cc3Cl)n2)cn1 [Example I-94]
1000 to 10000 nM | 10 to 100 nM | – | COc1ccc(F)c(CNc2nc(Nc3cnn(C)c3)ncc2F)c1F [Example I-383]
1000 to 10000 nM | 10 to 100 nM | – | CN(C)C(=O)Cn1cc(Nc2ncc(Cl)c(NCc3c(F)cc(F)cc3F)n2)cn1 [Example I-16]
100 to 1000 nM | 10 to 100 nM | – | OCCn1cc(Nc2ncc(Cl)c(NCc3c(F)cc(F)cc3F)n2)cn1 [Example I-15]
100 to 1000 nM | 10 to 100 nM | – | Cc1cnc(Nc2cnn(C)c2)nc1NCc1c(F)ccc(F)c1F [Example I-420]
100 to 1000 nM | 10 to 100 nM | – | CNC(=O)Cn1cc(Nc2ncc(Cl)c(NCc3cc(S(C)(=O)=O)ccc3OC)n2)cn1 [Example I-444]
1000 to 10000 nM | 10 to 100 nM | – | COc1cc(F)c(CNc2nc(Nc3cnn(C)c3)ncc2C)c(F)c1 [Example I-314]
100 to 1000 nM | 10 to 100 nM | – | CS(=O)(=O)c1ccc(F)c(CNc2nc(Nc3cn[nH]c3)ncc2Cl)c1 [Example I-98]
1000 to 10000 nM | 10 to 100 nM | – | Cn1cc(Nc2ncc(F)c(NCc3cccc(C#N)c3)n2)cn1 [Example I-183]
100 to 1000 nM | 10 to 100 nM | – | COc1ccc(F)c(CNc2nc(Nc3cnn(CCO)c3)ncc2Cl)c1F [Example I-320]

IC50 [1] | IC50 [2, 3] | IC50 ([2]; read-out: TYK2 IC50) | Compound
1000 to 10000 nM | 100 to 1000 nM | – | [2H]C([2H])(O)C([2H])([2H])n1cc(Nc2ncc(Cl)c(NCc3cccc(F)c3F)n2)cn1 [Example I-233]
> 10000 nM | 100 to 1000 nM | – | CC(C)(C)OC(=O)N1CCN(C(=O)Cn2cc(Nc3ncc(Cl)c(NCc4ccccc4)n3)cn2)CC1 [Example I-207]
1000 to 10000 nM | 100 to 1000 nM | – | COc1ccc(S(C)(=O)=O)cc1CNc1nc(Nc2cnn(CC(F)F)c2)ncc1F [Example I-480]
100 to 1000 nM | 100 to 1000 nM | – | N#Cc1c(F)cccc1CNc1nc(Nc2cnn(CC(N)=O)c2)ncc1Cl [Example I-286]
> 10000 nM | 10 to 100 nM | – | CC(NC(=O)Cn1cc(Nc2nccc(NCc3c(F)cc(F)cc3F)n2)cn1)C1CCCO1 (centres unmarked) [Example I-431]
100 to 1000 nM | 100 to 1000 nM | – | C[C@H](O)Cn1cc(Nc2ncc(Cl)c(NCc3ccccc3F)n2)cn1 [Example I-257]
1000 to 10000 nM | 10 to 100 nM | – | NS(=O)(=O)c1cc(F)c(CNc2nc(Nc3cnn(CC(=O)N4CCCCC4)c3)ncc2F)c(F)c1 [Example I-31]
> 10000 nM | ≤ 10 nM | – | C[C@@H](CO)NC(=O)Cn1cc(Nc2nccc(NCc3c(F)cc(F)cc3F)n2)cn1 [Example I-75]
> 10000 nM | 10 to 100 nM | – | CC1(C)CN(C(=O)Cn2cc(Nc3nccc(NCc4c(F)cc(F)cc4F)n3)cn2)C1 [Example I-458]
1000 to 10000 nM | 10 to 100 nM | – | O=C(Cn1cc(Nc2nccc(NCc3c(F)cc(F)cc3F)n2)cn1)NCC(F)F [Example I-92]
1000 to 10000 nM | 10 to 100 nM | – | CN(C)C(=O)Cn1cc(Nc2ncc(Cl)c(NCc3cccc(OCC#N)c3)n2)cn1 [Example I-365]
100 to 1000 nM | 100 to 1000 nM | – | Cn1cc(Nc2ncc(Cl)c(NCc3ccccc3F)n2)cn1 [Example I-173]
1000 to 10000 nM | 100 to 1000 nM | – | O=C(Cn1cc(Nc2ncc(Cl)c(NCc3ccccc3)n2)cn1)N1CC2(COC2)C1 [Example I-236]
1000 to 10000 nM | ≤ 10 nM | – | COc1ccc(F)c(CNc2nc(Nc3cnn(CC(=O)N(C)C(C)C)c3)ncc2F)c1F [Example I-57]
1000 to 10000 nM | 10 to 100 nM | – | OCCn1cc(Nc2ncc(Cl)c(NCc3ncccc3F)n2)cn1 [Example I-259]
1000 to 10000 nM | 10 to 100 nM | – | O=C(Cn1cc(Nc2nccc(NCc3c(F)cc(F)cc3F)n2)cn1)NC1CCOC1 (centres unmarked) [Example I-95]
1000 to 10000 nM | 10 to 100 nM | – | Cn1cc(Nc2nccc(NCc3c(F)ccc(C#N)c3F)n2)cn1 [Example I-135]
1000 to 10000 nM | 100 to 1000 nM | – | Cn1cc(Nc2ncc(Cl)c(NCc3cccc(Br)c3)n2)cn1 [Example I-163]
100 to 1000 nM | 10 to 100 nM | – | COc1ccc(F)c(CNc2nc(Nc3cnn(CC(=O)N4CCOCC4)c3)ncc2Cl)c1F [Example I-377]
1000 to 10000 nM | 100 to 1000 nM | – | CC(C)(C)OC(=O)N1CC2(CN(C(=O)Cn3cc(Nc4ncc(Cl)c(NCc5ccccc5)n4)cn3)C2)C1 [Example I-220]
100 to 1000 nM | 10 to 100 nM | – | Cn1cc(Nc2ncc(Cl)c(NCc3c(F)ccc(F)c3F)n2)cn1 [Example I-340]

— US9296725B2, “Heterocyclyl pyrimidine analogues as TYK2 inhibitors” (Cellzome Limited, priority 2012, dated 2016)
